Experimental data as given in US20230009626A1 (ICHNOS SCIENCES S.A., priority 2018, published 2023).

Target: HPK1 (MAP4K1) (Homo sapiens, UniProt Q92918)
Experiment: FRET Assay for HPK1 (MAP4K1): one step binding assay, displacement of labeled tracer
Conditions: for inhibition at 1 µM: 1 μM compound; for inhibition at 1 µM / inhibition at 10 µM: FRET ratio 665/620, percent of control; for inhibition at 10 µM: 10 μM compound; for IC50: dose response curve, nonlinear regression
From the text: FRET Assay for HPK1 (MAP4K1):
This is a one step binding assay based on the binding and displacement of the labeled tracer, where compound addition is followed by addition of the anti-GST tagged europium (Eu) as the donor and Alexa Fluor-labeled tracer as the acceptor. Simultaneous binding of both the tracer and GST-antibody to the kinase domain of HPK1 results in a high degree of FRET (fluorescence resonance energy transfer) from the anti-GST tagged europium (Eu) fluorophore to the Alexa Fluor® 647 fluorophore on the kinase tracer and this signal is reduced in presence of the inhibitor that can be measured.
Test compounds or reference compounds such as Sunitinib (Sigma) were dissolved in dimethylsulfoxide (DMSO) to prepare 10.0 mM stock solutions and diluted to the desired concentration. The final concentration of DMSO in the reaction was 3% (v/v). The assay mixture was prepared by mixing 4 nM of the Eu-Anti-GST Antibody and 10 nM MAP4K-1 enzyme in the Kinase buffer containing 50mM HEPES (pH 7.5), 10 mM MgCl2, 1 mM EGTA, 0.01% Brij-35 with or without the desired concentration of the compound. The reaction was incubated on ice for 15 mins. The pre-incubation step was followed by addition of the 20 nM Kinase Tracer 222 into the reaction mixture. After shaking for 5 min the reaction was further incubated for 1 hour at room temperature and this was kept at 4° C. and read on ARTEMIS reader as per the kit instructions (Thermo). […] The activity was calculated as percent of control reaction. IC50 values were calculated from dose response curve by nonlinear regression analysis using GraphPad Prism software.
Percentage inhibition at concentrations of 1.0 μM and 10.0 μM are given in the table along with IC50 (nM) details for selected examples.

HPK1 (MAP4K1), sequence (Q92918 whole entry): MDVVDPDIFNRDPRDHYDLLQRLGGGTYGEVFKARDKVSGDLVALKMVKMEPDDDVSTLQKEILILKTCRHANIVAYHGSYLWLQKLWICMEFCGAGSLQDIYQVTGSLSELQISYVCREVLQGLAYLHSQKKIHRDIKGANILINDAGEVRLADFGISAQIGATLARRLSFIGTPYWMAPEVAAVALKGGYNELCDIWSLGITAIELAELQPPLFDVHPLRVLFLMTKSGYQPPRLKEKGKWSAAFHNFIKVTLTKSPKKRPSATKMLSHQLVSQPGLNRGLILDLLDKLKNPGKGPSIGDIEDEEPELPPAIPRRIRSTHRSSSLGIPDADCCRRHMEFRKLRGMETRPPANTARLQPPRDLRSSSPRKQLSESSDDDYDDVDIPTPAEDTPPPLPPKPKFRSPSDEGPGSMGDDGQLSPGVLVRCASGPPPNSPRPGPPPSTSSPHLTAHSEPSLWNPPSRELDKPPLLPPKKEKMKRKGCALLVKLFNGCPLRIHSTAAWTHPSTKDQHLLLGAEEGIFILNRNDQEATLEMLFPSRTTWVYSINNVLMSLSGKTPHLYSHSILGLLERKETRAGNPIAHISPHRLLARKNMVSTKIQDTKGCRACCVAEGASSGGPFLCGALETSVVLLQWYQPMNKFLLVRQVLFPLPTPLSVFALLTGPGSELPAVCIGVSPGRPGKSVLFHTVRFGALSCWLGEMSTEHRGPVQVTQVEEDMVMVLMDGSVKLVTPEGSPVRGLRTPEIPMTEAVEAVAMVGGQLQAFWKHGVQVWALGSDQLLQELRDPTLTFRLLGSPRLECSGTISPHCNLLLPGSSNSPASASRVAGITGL

inhibition at 1 µM [%] | inhibition at 10 µM [%] | IC50 [nM] | Compound
78.2 | 74.5 | < 50 | C/C(Nc1cc2n(n1)CCOC2)=C1/C(=O)Nc2ccc(-c3cnccc3C)cc21 [Example 193, (Z)-3-(1-((6,7-Dihydro-4H-pyrazolo[5,1-c][1,4]oxazin-2-yl)amino)ethylidene)-5-(4-methylpyridin-3-yl)indolin-2-one]
66.8 | 77.4 | < 50 | COc1cccc(F)c1-c1cc2c(cn1)NC(=O)/C2=C(/C)Nc1cnn(C[C@H](C)O)c1 [Example 173, (S,Z)-5-(2-Fluoro-6-methoxyphenyl)-3-(1-((1-(2-hydroxypropyl)-1H-pyrazol-4-yl)amino)ethylidene)-1H-pyrrolo[2,3-c]pyridin-2(3H)-one]
64.3 | 74.2 | < 50 | C/C(Nc1cnn(C2CC2)c1)=C1/C(=O)Nc2cnc(-c3cnccc3C)cc21 [Example 49, (Z)-3-(1-((1-Cyclopropyl-1H-pyrazol-4-yl)amino)ethylidene)-5-(4-methylpyridin-3-yl)-1H-pyrrolo[2,3-c]pyridin-2(3H)-one]
60.2 | 69.5 | < 50 | C/C(Nc1cc(C)n(CC(F)F)n1)=C1/C(=O)Nc2cnc(-c3cc(F)ccc3C)cc21 [Example 213, (Z)-3-(1-((1-(2,2-Difluoroethyl)-5-methyl-1H-pyrazol-3-yl)amino)ethylidene)-5-(5-fluoro-2-methylphenyl)-1H-pyrrolo[2,3-c]pyridin-2(3H)-one]
90.1 | 91 | < 50 | COc1cccc(F)c1-c1ccc2c(c1)/C(=C(\C)Nc1ccc(N3CCN(C4COC4)CC3)nc1)C(=O)N2 [Example 4, (Z)-5-(2-Fluoro-6-methoxyphenyl)-3-(1-((6-(4-(oxetan-3-yl)piperazin-1-yl)pyridin-3-yl)amino)ethylidene)indolin-2-one]
86.2 | 89.2 | < 50 | COc1cccc(F)c1-c1ccc2c(n1)/C(=C(\C)Nc1cnn(C)c1)C(=O)N2 [Example 43, (Z)-5-(2-Fluoro-6-methoxyphenyl)-3-(1-((1-methyl-1H-pyrazol-4-yl)amino)ethylidene)-1H-pyrrolo[3,2-b]pyridin-2(3H)-one]
55.1 | 64.8 | < 50 | C/C(Nc1cnn(CC2(O)CC2)c1)=C1/C(=O)Nc2cnc(-c3cnccc3C)cc21 [Example 174, (Z)-3-(1-((1-((1-Hydroxycyclopropyl)methyl)-1H-pyrazol-4-yl)amino)ethylidene)-5-(4-methylpyridin-3-yl)-1H-pyrrolo[2,3-c]pyridin-2(3H)-one]
65 | 66.3 | < 50 | C/C(Nc1ccn(CC[C@H](C)O)n1)=C1/C(=O)Nc2cnc(-c3cnccc3C)cc21 [Example 196, (S,Z)-3-(1-((1-(3-hydroxybutyl)-1H-pyrazol-3-yl)amino)ethylidene)-5-(4-methylpyridin-3-yl)-1H-pyrrolo[2,3-c]pyridin-2(3H)-one]
78.2 |  | < 50 | C/C(Nc1cnn(C)c1)=C1/C(=O)Nc2cnc(-c3cncc4c3OCC(=O)N4)cc21 [Example 85, (Z)-8-(3-(1-((1-Methyl-1H-pyrazol-4-yl)amino)ethylidene)-2-oxo-2,3-dihydro-1H-pyrrolo[2,3-c]pyridin-5-yl)-2H-pyrido[4,3-b][1,4]oxazin-3(4H)-one]
93.5 |  | < 50 | C/C(Nc1ccc(N2CCOCC2)nc1)=C1/C(=O)Nc2cnc(-c3cnccc3C)cc21 [Example 38, (Z)-5-(4-Methylpyridin-3-yl)-3-(1-((6-morpholinopyridin-3-yl)amino)ethylidene)-1H-pyrrolo[2,3-c]pyridin-2(3H)-one]
80 | 92.4 | < 50 | C/C(Nc1ccn(C(C)(C)C#N)n1)=C1/C(=O)Nc2cnc(-c3cncc(N)c3C)cc21 [Example 106, (Z)-2-(3-((1-(5-(5-Amino-4-methylpyridin-3-yl)-2-oxo-1H-pyrrolo[2,3-c]pyridin-3(2H)-ylidene)ethyl)amino)-1H-pyrazol-1-yl)-2-methylpropanenitrile]
71.4 | 84.3 | < 50 | C/C(Nc1ccn(CC[C@@H](C)O)n1)=C1/C(=O)Nc2cnc(-c3cnccc3C)cc21 [Example 169, (R,Z)-3-(1-((1-(3-Hydroxybutyl)-1H-pyrazol-3-yl)amino)ethylidene)-5-(4-methylpyridin-3-yl)-1H-pyrrolo[2,3-c]pyridin-2(3H)-one]
2.17 | 49 |  | CC(=O)N1CC(n2ccc(N/C(C)=C3\C(=O)Nc4cnc(-c5cnccc5C)cc43)n2)C1 [Example 120, (Z)-3-(1-((1-(1-Acetylazetidin-3-yl)-1H-pyrazol-3-yl)amino)ethylidene)-5-(4-methylpyridin-3-yl)-1H-pyrrolo[2,3-c]pyridin-2(3H)-one]

The remaining lines, values behind:

Compound | inhibition at 1 µM [%] | inhibition at 10 µM [%] | IC50 [nM]
COCCn1ccc(N/C(C)=C2\C(=O)Nc3cnc(-c4cnccc4C)cc32)n1 [Example 143, (Z)-3-(1-((1-(2-Methoxyethyl)-1H-pyrazol-3-yl)amino)ethylidene)-5-(4-methylpyridin-3-yl)-1H-pyrrolo[2,3-c]pyridin-2(3H)-one] | 80.4 | 83.8 | < 50
C/C(Nc1cc(C)n(C)n1)=C1/C(=O)Nc2cnc(-c3cnccc3C)cc21 [Example 129, (Z)-3-(1-((1,5-dimethyl-1H-pyrazol-3-yl)amino)ethylidene)-5-(4-methylpyridin-3-yl)-1H-pyrrolo[2,3-c]pyridin-2(3H)-one] | 76.4 | 82.2 | < 50
C/C(Nc1ccn(CC2CC2)n1)=C1/C(=O)Nc2cnc(-c3cnccc3C)cc21 [Example 103, (Z)-3-(1-((1-(Cyclopropylmethyl)-1H-pyrazol-3-yl)amino)ethylidene)-5-(4-methylpyridin-3-yl)-1H-pyrrolo[2,3-c]pyridin-2(3H)-one] | 74.5 | 83.4 | < 50
C/C(Nc1ccc(N2CCNCC2)nc1)=C1/C(=O)Nc2cnc(-c3cnccc3C)cc21 [Example 46, (Z)-5-(4-Methylpyridin-3-yl)-3-(1-((6-(piperazin-1-yl)pyridin-3-yl)amino)ethylidene)-1H-pyrrolo[2,3-c]pyridin-2(3H)-one] | 85.3 | 87.3 | < 50
C/C(Nc1cnn(C)c1)=C1/C(=O)Nc2cnc(-c3cncc(N)c3C)cc21 [Example 51, (Z)-5-(5-Amino-4-methylpyridin-3-yl)-3-(1-((1-methyl-1H-pyrazol-4-yl)amino)ethylidene)-1H-pyrrolo[2,3-c]pyridin-2(3H)-one] | 81.2 | 84.2 | < 50
COc1cccc(F)c1-c1cc2c(cn1)NC(=O)/C2=C(/C)Nc1ccn(C)n1 [Example 28, (Z)-5-(2-Fluoro-6-methoxyphenyl)-3-(1-((1-methyl-1H-pyrazol-3-yl)amino)ethylidene)-1H-pyrrolo[2,3-c]pyridin-2(3H)-one] | 84.8 | 89.4 | < 50
C/C(Nc1ccn(C2CCN(C3COC3)CC2)n1)=C1/C(=O)Nc2cnc(-c3cnccc3C)cc21 [Example 147, (Z)-5-(4-Methylpyridin-3-yl)-3-(1-((1-(1-(oxetan-3-yl)piperidin-4-yl)-1H-pyrazol-3-yl)amino)ethylidene)-1H-pyrrolo[2,3-c]pyridin-2(3H)-one] | 74.9 | 75.9 | < 50
C/C(Nc1ccc(N2CCOCC2)cn1)=C1/C(=O)Nc2cnc(-c3cnccc3C)cc21 [Example 107, (Z)-5-(4-Methylpyridin-3-yl)-3-(1-((5-morpholinopyridin-2-yl)amino)ethylidene)-1H-pyrrolo[2,3-c]pyridin-2(3H)-one] | 72.3 | 80 | < 50
CCOc1cccc(F)c1-c1cc2c(cn1)NC(=O)/C2=C(/C)Nc1cnn(CC)c1 [Example 22, (Z)-5-(2-Ethoxy-6-fluorophenyl)-3-(1-((1-ethyl-1H-pyrazol-4-yl)amino)ethylidene)-1H-pyrrolo[2,3-c]pyridin-2(3H)-one] | 86.6 | 90.5 | < 50
C/C(Nc1cnn(C[C@@H](C)O)c1)=C1/C(=O)Nc2cnc(-c3cnccc3C)cc21 [Example 153, (R,Z)-3-(1-((1-(2-Hydroxypropyl)-1H-pyrazol-4-yl)amino)ethylidene)-5-(4-methylpyridin-3-yl)-1H-pyrrolo[2,3-c]pyridin-2(3H)-one] | 72.5 | 80.9 | < 50
C/C(Nc1c(C)nn(C)c1C)=C1/C(=O)Nc2cnc(-c3cnccc3C)cc21 [Example 119, (Z)-5-(4-Methylpyridin-3-yl)-3-(1-((1,3,5-trimethyl-1H-pyrazol-4-yl)amino)ethylidene)-1H-pyrrolo[2,3-c]pyridin-2(3H)-one] | 52.6 | 67 | > 500
